Here are results for 28 compounds from patent publication US20120101100A1 (priority 2008, published 2012).

Chain of S. aureus GyrB ATPase (P0A0K8 whole entry): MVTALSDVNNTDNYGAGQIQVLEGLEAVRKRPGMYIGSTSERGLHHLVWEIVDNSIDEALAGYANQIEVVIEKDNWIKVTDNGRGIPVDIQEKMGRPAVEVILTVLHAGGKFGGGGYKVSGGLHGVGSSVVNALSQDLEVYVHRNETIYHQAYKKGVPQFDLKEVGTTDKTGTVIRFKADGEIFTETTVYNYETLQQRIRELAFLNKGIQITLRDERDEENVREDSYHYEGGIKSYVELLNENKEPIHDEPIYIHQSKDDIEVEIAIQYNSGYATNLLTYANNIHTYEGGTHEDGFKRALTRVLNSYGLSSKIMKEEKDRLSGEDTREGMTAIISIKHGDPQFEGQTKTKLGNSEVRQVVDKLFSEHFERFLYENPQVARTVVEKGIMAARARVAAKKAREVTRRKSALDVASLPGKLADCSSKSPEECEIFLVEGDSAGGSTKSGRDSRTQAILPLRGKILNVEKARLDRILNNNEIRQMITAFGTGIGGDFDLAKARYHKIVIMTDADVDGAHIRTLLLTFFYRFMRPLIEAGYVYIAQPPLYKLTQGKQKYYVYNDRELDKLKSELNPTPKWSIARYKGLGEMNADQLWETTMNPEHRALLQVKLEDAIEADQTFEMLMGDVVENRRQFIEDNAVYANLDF
Chain of S. aureus GyrB ATPase (P0AES4 whole entry, further chain): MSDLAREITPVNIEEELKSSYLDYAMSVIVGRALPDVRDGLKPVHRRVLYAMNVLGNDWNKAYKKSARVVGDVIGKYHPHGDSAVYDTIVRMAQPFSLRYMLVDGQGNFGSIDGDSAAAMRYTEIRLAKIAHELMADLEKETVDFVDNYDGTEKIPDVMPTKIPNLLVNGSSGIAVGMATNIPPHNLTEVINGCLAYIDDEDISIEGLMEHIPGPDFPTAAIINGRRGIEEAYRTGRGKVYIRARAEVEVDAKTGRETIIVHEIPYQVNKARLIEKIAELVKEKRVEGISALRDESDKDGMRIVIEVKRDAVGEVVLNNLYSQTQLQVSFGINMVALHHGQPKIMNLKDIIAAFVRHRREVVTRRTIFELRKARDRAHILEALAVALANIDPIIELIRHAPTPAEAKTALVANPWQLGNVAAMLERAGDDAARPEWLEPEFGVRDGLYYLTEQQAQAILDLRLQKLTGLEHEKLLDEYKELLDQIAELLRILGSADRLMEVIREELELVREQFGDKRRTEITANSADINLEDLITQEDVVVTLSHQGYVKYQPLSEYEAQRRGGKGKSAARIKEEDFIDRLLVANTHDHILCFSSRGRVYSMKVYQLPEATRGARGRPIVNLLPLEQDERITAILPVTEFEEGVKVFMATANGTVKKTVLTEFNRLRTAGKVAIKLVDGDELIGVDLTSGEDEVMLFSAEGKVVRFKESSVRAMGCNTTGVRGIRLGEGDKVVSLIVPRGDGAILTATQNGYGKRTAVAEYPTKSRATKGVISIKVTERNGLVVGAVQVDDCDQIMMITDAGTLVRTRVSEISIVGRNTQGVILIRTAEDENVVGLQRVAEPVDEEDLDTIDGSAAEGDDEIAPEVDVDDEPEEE

The assay has as its target S. aureus GyrB ATPase (Staphylococcus aureus, UniProt P0A0K8). Nature of the assay: S. aureus (SAU) GyrB ATPase inhibition, malachite green phosphate detection (E. coli GyrA + S. aureus GyrB). In kind it is biochemical. Conditions: compound concentration of 1.0 μM unless otherwise noted; average value where assay was carried out more than once; read-out: S. aureus (SAU) GyrB ATPase % Inhibition. In short, it runs like this:
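Phosphate from ATP hydrolysis (500 μM ATP) read as malachite green/molybdate absorbance at 650 nm after acid quench. Reaction: 1.25 nM S. aureus GyrB plus 1.25 nM E. coli GyrA, sheared DNA, Hepes pH 7.5 with Mg2+. IC50 fitted over 10 concentrations, normalised to DMSO (2%) and novobiocin (2 μM) controls.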
For the compound `CCNC(=O)Nc1cc(-c2nc(-c3ccccc3)cs2)c(-c2cc(OC(C)C)nc(-c3nnc(C)o3)c2)cn1` [Example 82, 1-ethyl-3-(2′-isopropoxy-6′-(5-methyl-1,3,4-oxadiazol-2-yl)-4-(4-phenylthiazol-2-yl)-3,4′-bipyridin-6-yl)urea], the inhibition (commonly the drop in the measured response relative to a control, in per cent) at 1 µM was 86%.
With `CCNC(=O)Nc1cc(-c2nc(C(F)(F)F)cs2)c(-c2cc(OCC3CC3)nc(-c3n[nH]c(=O)o3)c2)cn1` [Example 83, 1-(2′-(cyclopropylmethoxy)-6′-(5-oxo-4,5-dihydro-1,3,4-oxadiazol-2-yl)-4-(4-(trifluoromethyl)thiazol-2-yl)-3,4′-bipyridin-6-yl)-3-ethylurea] the figure was 94%; with `CCNC(=O)Nc1cc(-c2nc(-c3ccccc3)cs2)c(-c2cc(OCC3CC3)nc(-c3n[nH]c(=O)o3)c2)cn1` [Example 85, 1-(2′-(cyclopropylmethoxy)-6′-(5-oxo-4,5-dihydro-1,3,4-oxadiazol-2-yl)-4-(4-phenylthiazol-2-yl)-3,4′-bipyridin-6-yl)-3-ethylurea], 93%; with `CCNC(=O)Nc1cc(-c2nc(C(F)(F)F)cs2)c(-c2cc(-c3n[nH]c(=O)o3)nc(N3CCOCC3)c2)cn1` [Example 86, 1-ethyl-3-(2′-morpholino-6′-(5-oxo-4,5-dihydro-1,3,4-oxadiazol-2-yl)-4-(4-(trifluoromethyl)thiazol-2-yl)-3,4′-bipyridin-6-yl)urea], 97%.
In the case of `CCNC(=O)Nc1cc(-c2nc(C(F)(F)F)cs2)c(-c2cc(-c3nnc(C)o3)nc(N3CCOCC3)c2)cn1` [Example 87, 1-ethyl-3-(2′-morpholino-6′-(5-methyl-1,3,4-oxadiazol-2-yl)-4-(4-(trifluoromethyl)thiazol-2-yl)-3,4′-bipyridin-6-yl)urea], the inhibition at 1 µM is 99%.
On to `CCNC(=O)Nc1cc(-c2nc(-c3ccccc3)cs2)c(-c2cc(-c3n[nH]c(=O)o3)nc(N3CCOCC3)c2)cn1` [Example 88], for which the inhibition at 1 µM was determined as 94%.
Consider `CCNC(=O)Nc1cc(-c2nc(-c3ccccc3)cs2)c(-c2cc(-c3nnc(C)o3)nc(N3CCOCC3)c2)cn1` [Example 89, 1-ethyl-3-(2′-(5-methyl-1,3,4-oxadiazol-2-yl)-6′-morpholino-4-(4-phenylthiazol-2-yl)-3,4′-bipyridin-6-yl)urea], for which the inhibition at 1 µM stood at 87%.
For `CCNC(=O)Nc1cc(-c2nc(C(F)(F)F)cs2)c(-c2cc(OC3CCN(C)CC3)nc(-c3n[nH]c(=O)o3)c2)cn1` [Example 90, 1-ethyl-3-(2′-(1-methylpiperidin-4-yloxy)-6′-(5-oxo-4,5-dihydro-1,3,4-oxadiazol-2-yl)-4-(4-(trifluoromethyl)thiazol-2-yl)-3,4′-bipyridin-6-yl)urea] the value was 116%; for `CCNC(=O)Nc1cc(-c2nc(C(F)(F)F)cs2)c(-c2cc(OCCN(C)C)nc(-c3n[nH]c(=O)o3)c2)cn1` [Example 92, 1-(2′-(2-(dimethylamino)ethoxy)-6′-(5-oxo-4,5-dihydro-1,3,4-oxadiazol-2-yl)-4-(4-(trifluoromethyl)thiazol-2-yl)-3,4′-bipyridin-6-yl)-3-ethylurea], 104%; for `CCNC(=O)Nc1cc(-c2nc(-c3ccccc3)cs2)c(-c2cncc(-c3nnc(C)o3)c2)cn1` [Example 94, 1-ethyl-3-(5′-(5-methyl-1,3,4-oxadiazol-2-yl)-4-(4-phenylthiazol-2-yl)-3,3′-bipyridin-6-yl)urea], 98%.
For `CCNC(=O)Nc1cc(-c2nc(-c3ccccc3)cs2)c(-c2ccnc(-c3n[nH]c(=O)o3)c2)cn1` [Example 95, 1-ethyl-3-(2′-(5-oxo-4,5-dihydro-1,3,4-oxadiazol-2-yl)-4-(4-phenylthiazol-2-yl)-3,4′-bipyridin-6-yl)urea] the value was 99%; for `CCNC(=O)Nc1cc(-c2nc(-c3ccccc3)cs2)c(-c2ccnc(-c3nnc(C)o3)c2)cn1` [Example 96, 1-ethyl-3-(2′-(5-methyl-1,3,4-oxadiazol-2-yl)-4-(4-phenylthiazol-2-yl)-3,4′-bipyridin-6-yl)urea], 100%.
For `CCNC(=O)Nc1cc(-c2nc(-c3ccccc3)cs2)c(-c2nc(-c3ncnn3C)c(-c3nnc(C)o3)s2)cn1` [Example 97, 1-ethyl-3-(5-(5-(5-methyl-1,3,4-oxadiazol-2-yl)-4-(1-methyl-1H-1,2,4-triazol-5-yl)thiazol-2-yl)-4-(4-phenylthiazol-2-yl)pyridin-2-yl)urea], the inhibition at 1 µM came out at 99%.
Regarding `CCNC(=O)Nc1cc(-c2nc(-c3ccccc3)cs2)c(-c2nc(-c3ncccn3)c(-c3nnc(C)o3)s2)cn1` [Example 98, 1-ethyl-3-(5-(5-(5-methyl-1,3,4-oxadiazol-2-yl)-4-(pyrimidin-2-yl)thiazol-2-yl)-4-(4-phenylthiazol-2-yl)pyridin-2-yl)urea], the inhibition at 1 µM worked out at 100%.
As for `CCNC(=O)Nc1cc(-c2nc(C(F)(F)F)cs2)c(-c2cc(-c3n[nH]c(=O)o3)cnc2OCCN2CCN(C)CC2)cn1` [Example 99, 1-Ethyl-3-(2′-(2-(4-methylpiperazin-1-yl)ethoxy)-5′-(5-oxo-4,5-dihydro-1,3,4-oxadiazol-2-yl)-4-(4-(trifluoromethyl)thiazol-2-yl)-3,3′-bipyridin-6-yl)urea], the inhibition at 1 µM came out at 97%.
As for `CCNC(=O)Nc1cc(-c2nc(C(F)(F)F)cs2)c(-c2cc(-c3n[nH]c(=O)o3)cnc2OCCN(C)C)cn1` [Example 100, 1-(2′-(2-(Dimethylamino)ethoxy)-5′-(5-oxo-4,5-dihydro-1,3,4-oxadiazol-2-yl)-4-(4-(trifluoromethyl)thiazol-2-yl)-3,3′-bipyridin-6-yl)-3-ethylurea], the inhibition at 1 µM stood at 98%.
For `CCNC(=O)Nc1cc(-c2nc(C(F)(F)F)cs2)c(-c2cc(-c3n[nH]c(=O)o3)cnc2OC)cn1` [Example 101, 1-Ethyl-3-(2′-methoxy-5′-(5-oxo-4,5-dihydro-1,3,4-oxadiazol-2-yl)-4-(4-(trifluoromethyl)thiazol-2-yl)-3,3′-bipyridin-6-yl)urea] the value was 97%; for `CCNC(=O)Nc1cc(-c2nc(C(F)(F)F)cs2)c(-c2cc(-c3n[nH]c(=O)o3)cnc2OCCN2CCOCC2)cn1` [Example 102, 1-Ethyl-3-(2′-(2-morpholinoethoxy)-5′-(5-oxo-4,5-dihydro-1,3,4-oxadiazol-2-yl)-4-(4-(trifluoromethyl)thiazol-2-yl)-3,3′-bipyridin-6-yl)urea], 92%.
`CCNC(=O)Nc1cc(-c2nc(-c3ccccn3)cs2)c(-c2cncc(-c3nnc(C)o3)c2)cn1` [Example 104, 1-Ethyl-3-(5′-(5-methyl-1,3,4-oxadiazol-2-yl)-4-(4-(pyridin-2-yl)thiazol-2-yl)-3,3′-bipyridin-6-yl)urea]: the inhibition at 1 µM is 98%.
As to `CCNC(=O)Nc1cc(-c2nc(-c3ccccn3)cs2)c(-c2cncc(S(N)(=O)=O)c2)cn1` [Example 105, 6′-(3-Ethylureido)-4′-(4-(pyridin-2-yl)thiazol-2-yl)-3,3′-bipyridine-5-sulfonamide], the inhibition at 1 µM was determined as 101%.
Turning to `CCNC(=O)Nc1cc(-c2nc(-c3ccccn3)cs2)c(-c2ccnc(-c3n[nH]c(=O)o3)c2)cn1` [Example 106, 1-Ethyl-3-(2′-(5-oxo-4,5-dihydro-1,3,4-oxadiazol-2-yl)-4-(4-(pyridin-2-yl)thiazol-2-yl)-3,4′-bipyridin-6-yl)urea], the inhibition at 1 µM turned out to be 102%.
For `CCNC(=O)Nc1cc(-c2cnn(CC(C)C)c2)c(-c2cncc(-c3n[nH]c(=O)o3)c2)cn1` [Example 107, 1-Ethyl-3-(4-(1-isobutl-1H-pyrazol-4-yl)-5′-(5-oxo-4,5-dihydro-1,3,4-oxadiazol-2-yl)-3,3′-bipyridin-6-yl)urea], the inhibition at 1 µM amounted to 97%.
With `CCNC(=O)Nc1cc(-c2ccc(N3CCOCC3)cc2)c(-c2cncc(-c3n[nH]c(=O)o3)c2)cn1` [Example 108, 1-Ethyl-3-(4-(4-morpholinophenyl)-5′-(5-oxo-4,5-dihydro-1,3,4-oxadiazol-2-yl)-3,3′-bipyridin-6-yl)urea] the figure was 103%.
For `CCNC(=O)Nc1cc(-c2nc(C(F)(F)F)cs2)c(-c2cc(-c3n[nH]c(=O)o3)cnc2OC2CCNCC2)cn1` [Example 109, 1-Ethyl-3-{5′-(5-oxo-4,5-dihydro-1,3,4-oxadiazol-2-yl)-2′-(piperidin-4-yloxy)-4-[4-(trifluoromethyl)-1,3-thiazol-2-yl]-3,3′-bipyridin-6-yl}urea] the value was 98%.
With `CCNC(=O)Nc1cc(-c2nc(C(F)(F)F)cs2)c(-c2cc(-c3nnc(C)o3)cnc2OC2CCNCC2)cn1` [Example 110, 1-Ethyl-3-{5′-(5-methyl-1,3,4-oxadiazol-2-yl)-2′-(piperidin-4-yloxy)-4-[4-(trifluoromethyl)-1,3-thiazol-2-yl]-3,3′-bipyridin-6-yl}urea] the figure was 95%; with `CCNC(=O)Nc1cc(-c2nc(C(F)(F)F)cs2)c(-c2cc(-c3n[nH]c(=O)o3)cnc2OCCC(=O)O)cn1` [Example 111, 3-({6′-[(ethylcarbamoyl)amino]-5-(5-oxo-4,5-dihydro-1,3,4-oxadiazol-2-yl)-4′-[4-(trifluoromethyl)-1,3-thiazol-2-yl]-3,3′-bipyridin-2-yl}oxy)propanoic acid], 106%; with `CCNC(=O)Nc1cc(-c2nc(C(F)(F)F)cs2)c(-c2cc(-c3n[nH]c(=O)o3)cnc2OCC2CCOCC2)cn1` [Example 112, 1-Ethyl-3-{5′-(5-oxo-4,5-dihydro-1,3,4-oxadiazol-2-yl)-2′-(tetrahydro-2H-pyran-4-ylmethoxy)-4-[4-(trifluoromethyl)-1,3-thiazol-2-yl]-3,3′-bipyridin-6-yl}urea], 95%.
As for `CCNC(=O)Nc1cc(-c2nc(C(F)(F)F)cs2)c(-c2cc(-c3nnc(C)o3)cnc2OCC2CCOCC2)cn1` [Example 113, 1-Ethyl-3-{5′-(5-methyl-1,3,4-oxadiazol-2-yl)-2′-(tetrahydro-2H-pyran-4-ylmethoxy)-4-[4-(trifluoromethyl)-1,3-thiazol-2-yl]-3,3′-bipyridin-6-yl}urea], the inhibition at 1 µM came to 45%.
